Assay results as given in patent US12532889B2, “Herbicidal compositions comprising glufosinate” (BASF SE, priority 2023, dated 2026).

Experiments:
Assay in all cases: Post-emergence application in field trials (Example A)
Format in all cases: in vivo
ELEIN (Eleusine indica) = conditions: A-1 25, B-6 252 g ai/ha, water 400 l/ha
EPHHI (Euphorbia hirta) = conditions: Table 1.2; EPHHI height 25 cm; A-1 solo 25 g ai/ha; 14 DAT; water volume 100 l/ha; 0.5% v/v MSO
Method: (§1) In the examples below, using the method of S. R. Colby (1967) “Calculating synergistic and antagonistic responses of herbicide combinations”, Weeds 15, p. 22ff., the value E, which is expected if the activity of the individual active compounds is only additive, was calculated:
(§2) [formula] • where • X=percent activity using active herbicide A at an application rate a; • Y=percent activity using active herbicide B (e.g. glufosinate) at an application rate b; • E=expected activity (in %) by A+B at application rates a+b.
(§3) If the value found experimentally is higher than the value E calculated according to Colby, a synergistic effect is present.
(§4) On field test sites, natural weed infestation or seeded weeds were treated post-emergence of the weeds.
(§5) In the field trials, the weeds were treated as indicated below.
(§6) In the following experiments, the herbicidal activity for the individual herbicidal compositions (solo and mixture applications) was assessed at the indicated days after treatment (DAT). The assessments for the damage on undesired weeds caused by the composition was carried out using a scale from 0 to 100%, compared to the untreated control plants. Here, 0 means no damage and 100 means complete destruction of the plants.
(§7) Post-emergence application of Herbicide A-1 (A-1) and glufosinate ammonium (B-2) in Field Trials:
(§8) Herbicide A-1 (50 g/l), glufosinate ammonium (200 g/l) and optional herbicide C were, together with addition of 0.5% v/v MSO (methylated seed oil) as adjuvant, formulated in water as distribution medium as indicated and sprayed with commercial flat fan nozzles.

[1] = system: SPCHI (Spermacoce hispida); conditions: Table 1.2, SPCHI height 25 cm, 14 DAT, water volume 100 l/ha, 0.5% v/v MSO
Method: as §1, §2, §3, §4, §5, §6, §7, §8

[2] = system: DIGIN = TRCIN (Digitaria insularis)
Method: as §1, §2, §3, §4, §5, §6, §7, §8

[3] = system: CYPDI (Cyperus difformis); conditions: CYPDI height 25 cm
Method: as §1, §2, §3, §4, §5, §6, §7, §8

GLXMA (Glycine max) = conditions: 21 DAT; A-1 12.5 g ai/ha; growth stage 13; height 5-10 cm
Method in brief: (§9)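 Field sites with natural or seeded weed stands were sprayed post-emergence with solo and mixture herbicide compositions. Weed damage was rated visually at the stated days after treatment on a 0–100% scale versus untreated plants. Expected additive activity E was calculated by the Colby method.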

[4] = system: BRAPL (Brachiaria plantaginea); conditions: BRAPL growth stage 24, A-1 50, B-2 400 g ai/ha, water 200 l/ha
Method in brief: as §9

[5] = system: AMASP (Amaranthus spinosus); conditions: Table 5.5; AMASP growth stage 72; A-1 25, B-6 252 g ai/ha; 28 DAT; water 400 l/ha
Method in brief: as §9

BIDPI (Bidens pilosa) = conditions: Table 1.14; BIDPI height 20-45 cm; A-1 50, B-2 400 g ai/ha; 21 DAT; water 100 l/ha
Method in brief: as §9

[6] = system: POLCO (Polygonum convolvulus); conditions: Table 3.2, A-1 12.5, B-2 500 g ai/ha, 14 DAT, water 100 l/ha
Method in brief: as §9

[7] = system: SETPA (Setaria palmifolia); conditions: Table 5.3; SETPA growth stage 76-77; A-1 25, B-6 252 g ai/ha; 28 DAT; water 300 l/ha
Method in brief: as §9

[8] = system: HORVS (Hordeum vulgare (spring barley)); conditions: Table 3.1, HORVS volunteer barley, growth stage 22-24, height 32-35 cm, 28 DAT, water 100 l/ha
Method in brief: as §9

ERISS (Erigeron sp.) = conditions: Table 1.8, ERISS height 30-50 cm, 14 DAT, water 200 l/ha
Method in brief: as §9

GALAP (Galium aparine) = conditions: Table 3.1; GALAP growth stage 11-16, height 2-20 cm; A-1 18, B-2 500 g ai/ha; 28 DAT; water 100 l/ha
Method in brief: as §9

[9] = system: DIGHO (Digitaria horizontalis); conditions: Table 1.4, DIGHO growth stage 24, 14 DAT, water 200 l/ha
Method in brief: as §9

CCOC(=O)COc1ccccc1Oc1nc(-n2c(=O)cc(C(F)(F)F)n(C)c2=O)c(F)cc1Cl [A-1, ethyl 2-[2-[[3-chloro-5-fluoro-6-[3-methyl-2,6-dioxo-4-(trifluoromethyl)pyrimidin-1-yl]-2-pyridyl]oxy]phenoxy]acetate]
% herbicidal activity (ELEIN (Eleusine indica); Table 5.1, ELEIN height 5-20 cm, 21 DAT): 57% | % herbicidal activity (ELEIN (Eleusine indica); Table 5.6, ELEIN growth stage 14-15, height 9-14 cm, 28 DAT): 91% | % herbicidal activity (EPHHI (Euphorbia hirta)): 50% | % herbicidal activity ([1]; A-1 solo 25 g ai/ha): 40% | % herbicidal activity ([1]; A-1 solo 50 g ai/ha): 50% | % herbicidal activity ([2]; Table 1.13, DIGIN height 20-30 cm, A-1 50, B-2 400 g ai/ha, 21 DAT, water 100 l/ha): 30% | % herbicidal activity ([2]; Table 1.17, DIGIN height 20-30 cm, A-1 50, B-2 400 g ai/ha, 21 DAT, water 200 l/ha): 30% | % herbicidal activity ([2]; Table 1.19, DIGIN height 20-30 cm, A-1 50, B-2 400 g ai/ha, 21 DAT, water 200 l/ha): 30% | % herbicidal activity ([2]; Table 1.20, DIGIN height 60-80 cm, A-1 50, B-2 400 g ai/ha, 21 DAT, water 200 l/ha): 55% | % herbicidal activity ([2]; Table 1.22, DIGIN in tillering stage, height 5-15 cm, A-1 50, B-2 400 g ai/ha, 21 DAT, water 200 l/ha): 57% | % herbicidal activity ([2]; Table 1.22, DIGIN in tillering stage, height 5-15 cm, A-1 50, B-2 600 g ai/ha, 21 DAT, water 200 l/ha): 57% | % herbicidal activity ([2]; Table 1.23, DIGIN growth stage 16-18, height 15-25 cm, A-1 50, B-2 400 g ai/ha, 21 DAT, water 200 l/ha): 57% | % herbicidal activity ([2]; Table 1.23, DIGIN growth stage 16-18, height 15-25 cm, A-1 50, B-2 600 g ai/ha, 21 DAT, water 200 l/ha): 57% | % herbicidal activity ([2]; Table 1.24, DIGIN growth stage 67, height 100 cm, A-1 50, B-2 400 g ai/ha, 21 DAT, water 200 l/ha): 7% | % herbicidal activity ([2]; Table 1.24, DIGIN growth stage 67, height 100 cm, A-1 50, B-2 600 g ai/ha, 21 DAT, water 200 l/ha): 7% | % herbicidal activity ([2]; Table 1.25, DIGIN in tillering stage, height 8-20 cm, A-1 50, B-2 400 g ai/ha, 21 DAT, water 200 l/ha): 53% | % herbicidal activity ([2]; Table 1.25, DIGIN in tillering stage, height 8-20 cm, A-1 50, B-2 600 g ai/ha, 21 DAT, water 200 l/ha): 53% | % herbicidal activity ([2]; Table 1.26, DIGIN in tillering stage, height 50-70 cm, A-1 50, B-2 400 g ai/ha, 21 DAT, water 200 l/ha): 55% | % herbicidal activity ([2]; Table 1.26, DIGIN in tillering stage, height 50-70 cm, A-1 50, B-2 600 g ai/ha, 21 DAT, water 200 l/ha): 55% | % herbicidal activity ([2]; Table 1.3, DIGIN height 60-80 cm, A-1 25, B-2 400 g ai/ha, 14 DAT, water 200 l/ha): 37% | % herbicidal activity ([2]; Table 1.3, DIGIN height 60-80 cm, A-1 50, B-2 400 g ai/ha, 14 DAT, water 200 l/ha): 60% | % herbicidal activity ([2]; Table 1.5, DIGIN growth stage 16-18, height 15-25 cm, A-1 50, B-2 400 g ai/ha, 14 DAT, water 200 l/ha): 62% | % herbicidal activity ([2]; Table 1.5, DIGIN growth stage 16-18, height 15-25 cm, A-1 50, B-2 600 g ai/ha, 14 DAT, water 200 l/ha): 62% | % herbicidal activity ([2]; Table 1.7, DIGIN height 50-70 cm, tillering stage, A-1 solo 50 g ai/ha, 14 DAT, water volume 200 l/ha, 0.5% v/v MSO): 42% | % herbicidal activity ([3]; Table 1.15, A-1 25, B-2 400 g ai/ha, 21 DAT, water 100 l/ha): 50% | % herbicidal activity ([3]; Table 1.2, A-1 solo 25 g ai/ha, 14 DAT, water volume 100 l/ha, 0.5% v/v MSO): 52% | % herbicidal activity ([3]; Table 1.2, A-1 solo 50 g ai/ha, 14 DAT, water volume 100 l/ha, 0.5% v/v MSO): 60% | % herbicidal activity (GLXMA (Glycine max)): 90% | % herbicidal activity ([4]; Table 1.18, 21 DAT): 42% | % herbicidal activity ([4]; Table 1.4, 14 DAT): 85% | % herbicidal activity [5]: 84% | % herbicidal activity (BIDPI (Bidens pilosa)): 74% | % herbicidal activity [6]: 90% | % herbicidal activity [7]: 65% | % herbicidal activity ([8]; A-1 12.5, B-2 500 g ai/ha): 40% | % herbicidal activity ([8]; A-1 18, B-2 500 g ai/ha): 85% | % herbicidal activity (ERISS (Erigeron sp.); A-1 25, B-2 400 g ai/ha): 13% | % herbicidal activity (ERISS (Erigeron sp.); A-1 50, B-2 400 g ai/ha): 18% | % herbicidal activity (GALAP (Galium aparine)): 79% | % herbicidal activity ([9]; A-1 25, B-2 400 g ai/ha): 57% | % herbicidal activity ([9]; A-1 50, B-2 400 g ai/ha): 65%
